The record followed here is patent publication US20140120036A1, “RADIOLABELED 5-HT6 LIGANDS” (AbbVie Inc., priority 2012, published 2014).

Read-outs that look alike come from different tables or passages of the source. A value given as a limit tells only on which side of the number the result lay.

Data set [1] in a line: Brain regional distribution of [3H]compound relative to cerebellum. Type of data set: in vivo.
Another data set concerns the target T1, h-5-HT2B receptor (Homo sapiens, UniProt P41595).
T1 construct: purchased Perkin Elmer ES-3,4-M400UA; host or cells: CHO-K1 cell membranes
The data set is described as follows: 5-HT2B receptor binding assay ([125I]-DOI displacement, CHO-K1 membranes). To be noted: text. How it is done:
(§1) Cells from stable clonal cell lines expressing the corresponding receptor (5-HT6, 5-HT2A or 5-HT2B receptors) were washed with PBS with 0.02% EDTA. The cells were collected by centrifugation at 500 g for 10 min. at 4° C., washed with PBS and centrifuged (500 g, 10 min. 4° C.). The pellets were stored at −80° C. until use. For membrane preparation, the thawed cell pellet was resuspended in ice-cold sucrose buffer (0.25 M sucrose, 10 mM Hepes (pH 7.4), 1 mM Phenylmethylsulfonyl fluoride (PMSF) in DMSO, […] Pepstatin-A, 3 mM EDTA, 0.025% Bacitracin) and homogenized with a Branson Sonifier W-250 (Settings: Timer 4; Output Control 3; Duty Cycle constant; 2 to 3 cycles). Cell disruption was checked with the aid of a microscope. Remaining unbroken cells were pelleted at 1,000 g for 10 min. at 4° C. The sucrose buffer supernatant was then centrifuged at 60,000 g for 1 h at 4° C. (Beckman Ultrazentrifuge XL 80). […] Protein concentration was determined (BCA-Kit; Pierce) and aliquots stored at −80° C. or in liquid nitrogen for long-term storage.
All receptor binding experiments were carried out in the corresponding assay buffer in a total volume of 200 μl in the presence of various concentrations of test compound (10 ^−5 M to 10^−9 M, tenfold serial dilution, duplicate determinations). […] Radioactivity was measured in a Microbeta Trilux two hours after the addition of the scintillation mixture. […]

Another data set has as its target T2, h-5-HT6 receptor (Homo sapiens, UniProt P50406).
T2 construct: expressed in transfected cells
The data set is described as follows: 5-HT6 receptor binding assay ([3H]-LSD displacement, HEK293 membranes). The following applies: human 5-HT6. How it is done:
as §1, with “The” for “Cells from stable clonal cell lines expressing the corresponding receptor (5-HT6, 5-HT2A or 5-HT2B receptors) were washed with PBS with 0.02% EDTA. The”, “C.” for “C. (Beckman Ultrazentrifuge XL 80).”
After the plates had been dried for 2 h at 55° C. in a drying chamber scintillation cocktail (BetaPlate Scint; PerkinElmer) was added. Radioactivity was measured in a Microbeta Trilux two hours after the addition of the scintillation mixture. Data derived from liquid scintillation counting were analysed by iterative non-linear regression analysis with the use of the Statistical Analysis System (SAS): a program similar to “LIGAND” as described by Munson and Rodbard (Analytical Biochemistry 107, 220-239 (1980). […]

For data set [2], the target named is 78 targets (CEREP) other than the 5-HT6 receptor. The data set is described as follows: Selectivity panel, 78 targets (CEREP). Type of data set: binding. To be noted: all but the 5-HT2B and 5-HT2A receptors, read-out: Ki at ancillary targets.
The next data set can be described thus: Rat microsome half-life. Type of data set: in vitro ADME. To be noted: rat microsomes, read-out: Rat microsome T½ (mm).
For another data set, the target named is Rat 5-HT6 (Rattus norvegicus, UniProt P31388). The data set is described as follows: Rat 5-HT6 binding.
Data set [3] can be described thus: Rat PK (0.05 mg/kg, iv), plasma and brain concentrations. The class given is in vivo. The following applies: for Free B/P Ratio: free brain concentration divided by free plasma concentration.
The target in another data set is T3, h-5-HT2A receptor (Homo sapiens, UniProt P28223).
T3 construct: purchased Perkin Elmer ES-3,3-M400UA; host or cells: CHO-K1 cell membranes
The data set is described as follows: 5-HT2A receptor binding assay ([125I]-DOI displacement, CHO-K1 membranes). As to the method:
The cells were collected by centrifugation at 500 g for 10 min. at 4° C., washed with PBS and centrifuged (500 g, 10 min. 4° C.). The pellets were stored at −80° C. until use. For membrane preparation, the thawed cell pellet was resuspended in ice-cold sucrose buffer (0.25 M sucrose, 10 mM Hepes (pH 7.4), 1 mM Phenylmethylsulfonyl fluoride (PMSF) in DMSO, […] Pepstatin-A, 3 mM EDTA, 0.025% Bacitracin) and homogenized with a Branson Sonifier W-250 (Settings: Timer 4; Output Control 3; Duty Cycle constant; 2 to 3 cycles). Cell disruption was checked with the aid of a microscope. Remaining unbroken cells were pelleted at 1,000 g for 10 min. at 4° C. The sucrose buffer supernatant was then centrifuged at 60,000 g for 1 h at 4° C. (Beckman Ultrazentrifuge XL 80). The pellet was resuspended in 30 ml ice-cold Tris buffer (20 mM TRIS (pH 7.4), […] Pepstatin A, 0.1 mM PMSF, 3 mM EDTA) by pipetting through a 10 ml serological pipet and centrifuged for 1 h at 4° C. at 60,000 g. A final resuspension was performed in a small volume of ice-cold Tris buffer (see above) by pressing through a serological pipet followed by ultrasonic treatment with a Branson Sonifier W-250 (Settings: Timer 1; Output Control 3; Duty Cycle constant; 1 cycle). Protein concentration was determined (BCA-Kit; Pierce) and aliquots stored at −80° C. or in liquid nitrogen for long-term storage.
After the plates had been dried for 2 h at 55° C. in a drying chamber scintillation cocktail (BetaPlate Scint; PerkinElmer) was added. Radioactivity was measured in a Microbeta Trilux two hours after the addition of the scintillation mixture. Data derived from liquid scintillation counting were analysed by iterative non-linear regression analysis with the use of the Statistical Analysis System (SAS): a program similar to “LIGAND” as described by Munson and Rodbard (Analytical Biochemistry 107, 220-239 (1980).
Data derived from liquid scintillation counting were analyzed by iterative non-linear regression analysis with the use of the Statistical Analysis System (SAS): a program similar to “LIGAND” as described by Munson and Rodbard (Anal. Biochem. 1980, 107, 220-239). Fitting was performed according to formulae described by Feldman (Anal. Biochem. 1972, 48, 317-338).

A further data set deals with Mk striatum 5-HT6 (Macaca mulatta, UniProt A0A5F7ZDI3). The data set is described as follows: Mk striatum 5-HT6 binding. The arrangement: species or system Mk (monkey).
Sequence of Mk striatum 5-HT6 (A0A5F7ZDI3 1-440): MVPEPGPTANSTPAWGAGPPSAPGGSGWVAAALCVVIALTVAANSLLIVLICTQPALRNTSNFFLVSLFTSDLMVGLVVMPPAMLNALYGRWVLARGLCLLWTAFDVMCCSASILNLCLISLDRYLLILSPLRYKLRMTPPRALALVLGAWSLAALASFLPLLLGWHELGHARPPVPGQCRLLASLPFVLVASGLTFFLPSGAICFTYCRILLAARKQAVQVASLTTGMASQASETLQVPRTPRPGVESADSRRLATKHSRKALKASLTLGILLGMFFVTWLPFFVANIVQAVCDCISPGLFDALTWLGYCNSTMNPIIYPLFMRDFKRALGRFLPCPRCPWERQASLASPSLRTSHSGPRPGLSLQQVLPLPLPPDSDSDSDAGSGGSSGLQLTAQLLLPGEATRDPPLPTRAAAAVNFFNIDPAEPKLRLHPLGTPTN

T3 sequence (P28223 whole entry): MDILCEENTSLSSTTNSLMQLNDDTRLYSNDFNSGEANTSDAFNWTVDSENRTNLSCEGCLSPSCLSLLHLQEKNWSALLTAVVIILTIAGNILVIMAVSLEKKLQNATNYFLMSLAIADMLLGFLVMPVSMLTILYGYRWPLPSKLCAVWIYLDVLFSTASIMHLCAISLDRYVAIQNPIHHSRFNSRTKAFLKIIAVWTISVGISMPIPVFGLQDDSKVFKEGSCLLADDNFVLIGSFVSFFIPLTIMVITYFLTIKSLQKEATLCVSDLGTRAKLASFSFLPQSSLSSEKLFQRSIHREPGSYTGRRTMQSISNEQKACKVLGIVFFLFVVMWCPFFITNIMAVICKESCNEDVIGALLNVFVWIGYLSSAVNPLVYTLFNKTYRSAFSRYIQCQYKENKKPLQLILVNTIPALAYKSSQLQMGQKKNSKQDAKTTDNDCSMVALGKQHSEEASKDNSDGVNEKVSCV
T1 sequence (P41595 whole entry): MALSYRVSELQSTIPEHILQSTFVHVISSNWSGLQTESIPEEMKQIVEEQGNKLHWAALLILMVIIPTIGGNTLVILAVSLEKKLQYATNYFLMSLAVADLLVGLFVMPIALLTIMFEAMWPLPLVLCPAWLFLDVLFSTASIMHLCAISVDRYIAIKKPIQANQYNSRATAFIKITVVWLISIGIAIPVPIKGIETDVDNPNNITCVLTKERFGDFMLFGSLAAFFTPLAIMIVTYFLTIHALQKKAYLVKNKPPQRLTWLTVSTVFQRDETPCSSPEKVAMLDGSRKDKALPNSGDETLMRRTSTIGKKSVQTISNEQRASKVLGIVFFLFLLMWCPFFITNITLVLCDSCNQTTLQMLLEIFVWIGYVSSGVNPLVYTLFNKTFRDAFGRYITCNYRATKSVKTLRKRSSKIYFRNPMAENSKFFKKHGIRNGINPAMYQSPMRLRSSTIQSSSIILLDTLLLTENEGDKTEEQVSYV
Sequence of Rat 5-HT6 (P31388 whole entry): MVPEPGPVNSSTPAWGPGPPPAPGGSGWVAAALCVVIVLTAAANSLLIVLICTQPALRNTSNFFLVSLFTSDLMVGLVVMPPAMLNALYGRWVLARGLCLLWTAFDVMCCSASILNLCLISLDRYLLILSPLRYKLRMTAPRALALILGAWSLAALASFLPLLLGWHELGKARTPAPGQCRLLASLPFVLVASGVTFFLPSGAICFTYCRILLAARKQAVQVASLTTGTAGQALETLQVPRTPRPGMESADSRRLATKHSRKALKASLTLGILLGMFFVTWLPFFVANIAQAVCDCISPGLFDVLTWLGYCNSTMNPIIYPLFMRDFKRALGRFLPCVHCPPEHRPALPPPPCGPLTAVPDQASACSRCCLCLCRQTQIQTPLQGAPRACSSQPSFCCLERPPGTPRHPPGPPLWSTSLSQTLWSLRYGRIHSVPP
T2 sequence (P50406 whole entry): as the sequence (A0A5F7ZDI3 1-440) above, with V41A, V49A, P141L, A304V, W342R, Q393R, R406Q, K429E, L432P, T437I counted along it

As for “1-(5-(3-(difluoromethoxy)phenylsulfonyl)-2-methoxyphenyl)-4-([^3H]methyl)-piperazine [Example 3]”, in data set [1] (3 min after dose), the Hippo./Cer. stood at 3.7 and the Striatum/Cer. is on record as 10.4. In [1] (40 min after dose), the Hippo./Cer. is reported as 1.4 and the Striatum/Cer. is on record as 2.0.

By Ki is commonly meant the dissociation constant of the complex between target and ligand, obtained from inhibition or displacement. With `COc1ccc(S(=O)(=O)c2cccc(OC(F)F)c2)cc1N1CCN(C)CC1` [Example 1, 4-(5-(3-(difluoromethoxy)phenylsulfonyl)-2-methoxyphenyl)-1-methylpiperazin-1-ium chloride], the Ki is 71 nM on h-5-HT2B receptor; 0.41 nM at h-5-HT6 receptor; > 1000 nM in data set [2]; 1.5 nM on Rat 5-HT6; 195 nM on h-5-HT2A receptor (text, read-out: Ki at 5-HT2A receptor). For the same compound, on h-5-HT2B receptor, the “Selectivity for 5-HT6 over 5-HT2B” value worked out at 173.2 fold. Moreover, the half-life in “Rat microsome half-life” came out at 10 min. The “Free [brain]” value in data set [3] (3 min after dose) stood at 53.4 ng/g; in data set [3] (5 min after dose), 55.3 ng/g. In addition, the “Plasma Conc.” value in data set [3] (3 min after dose) is 49.2 ng/mL; in [3] (5 min after dose) it was 29.0 ng/mL. In addition, the “Free B/P Ratio” value in data set [3] (3 min after dose) is 1.1; in data set [3] (5 min after dose), 1.7. The “Selectivity for 5-HT6 v. 5-HT2A” value on h-5-HT2A receptor (ratio of human 5-HT2A Ki to human 5-HT6 Ki) was 475.6 ×. Further, the “Selectivity for 5-HT6 over 5-HT2A” value on h-5-HT2A receptor (text) turned out to be 475.6 fold; on h-5-HT2A receptor (text, listed as Example (1)) it was 475 fold.

In the case of `CN1CCN(c2cccc3cc(S(=O)(=O)c4cccc(F)c4)cnc23)CC1` [GSK-215083, reference compound], the Ki stood at 3.2 nM on Mk striatum 5-HT6 and 0.395 nM at h-5-HT2A receptor (human 5-HT2A, read-out: Human 5-HT2A Ki).
